Values joined by “and” are separate entries in the source; they are usually repeats but may differ in a detail not shown here. Identical values can stand only once.
Tested on: Escherichia coli ATCC 25922 (GN_001)
Assay: Synergy of cannabidiol with cell-wall disrupting agent (CBD MIC in combination, FICI)
Format: cell-based
Experimental: The compounds were stored short term at 4° C.
Analysis was performed using Microsoft Excel.

[1] = CBD with Colistin, Escherichia coli ATCC 25922
[2] = CBD with MCC_6442, Escherichia coli ATCC 25922
[3] = CBD with Ticarcillin, Escherichia coli ATCC 25922

C=C(C)C1CCC(C)=CC1c1c(O)cc(CCCCC)cc1O (stereo not shown) [Cannabidiol, 2-[3-methyl-6-(1-methylethenyl)-2-cyclohexen-1-yl]-5-pentyl-1,3-benzenediol]
CBD MIC with Aztreonam (Aztreonam at 0.062 μg/mL): 1 ng/mL | CBD MIC with Aztreonam (Aztreonam at 0.25 μg/mL): 1 ng/mL | CBD MIC with Aztreonam (Aztreonam at 0.5 μg/mL): 1 ng/mL | CBD MIC with Aztreonam (Aztreonam at […]): 1 ng/mL | FICI (CBD with Aztreonam at 0.015 μg/mL, CBD MIC taken as 256 μg/mL): 1.12 | FICI (CBD with Aztreonam at 0.031 μg/mL, CBD MIC taken as 256 μg/mL): 1.248 | FICI (CBD with Aztreonam at 0.062 μg/mL, CBD MIC taken as 256 μg/mL): 0.496 | FICI (CBD with Aztreonam at 0.25 μg/mL, CBD MIC taken as 256 μg/mL): 2 | FICI (CBD with Aztreonam at 0.5 μg/mL, CBD MIC taken as 256 μg/mL): 4 | FICI range (CBD with Aztreonam, Synergy table (Table 76)): 0.48 | FICI range (CBD with Aztreonam, all tested concentrations (Table 74)): 0.5-4 | FICI (CBD with Cefepime at 0.015 μg/mL, CBD MIC taken as 256 μg/mL): 1.484 and 1.242 | FICI (CBD with Cefepime at 0.062 μg/mL, CBD MIC taken as 256 μg/mL): 2 | FICI (CBD with Cefepime at 0.25 μg/mL, CBD MIC taken as 256 μg/mL): 8.065 | FICI (CBD with Cefepime at 0.25 μg/mL, CBD MIC taken as 256 μg/mL, listed as cannabidiol): 4.032 | FICI (CBD with Cefepime at 0.5 μg/mL, CBD MIC taken as 256 μg/mL): 16.13 and 8.065 | FICI range (CBD with Cefepime, all tested concentrations (Table 79), listed as CBD): 1-16.13 and 0.5-8.06 | FICI (CBD with Cefotetan at 0.015 μg/mL, CBD MIC taken as 256 μg/mL): 1.06 | FICI (CBD with Cefotetan at 0.031 μg/mL, CBD MIC taken as 256 μg/mL): 1.124 | FICI (CBD with Cefotetan at 0.062 μg/mL, CBD MIC taken as 256 μg/mL): 1.248 | FICI (CBD with Cefotetan at 0.5 μg/mL, CBD MIC taken as 256 μg/mL): 2 | FICI range (MIC table) (CBD with Cefotetan, Escherichia coli ATCC 25922): 0.5-2 | FICI range (CBD with Cefotetan, Synergy table (Table 71)): 0.5 | FICI (CBD with Ceftazidime at 0.015 μg/mL, Escherichia coli ATCC 25922): 1.242 | FICI (CBD with Ceftazidime at 0.031 μg/mL, Escherichia coli ATCC 25922): 1.5 | FICI (CBD with Ceftazidime at 0.062 μg/mL, Escherichia coli ATCC 25922): 2 | FICI (CBD with Ceftazidime at 0.25 μg/mL, Escherichia coli ATCC 25922): 4.032 | FICI (CBD with Ceftazidime at 0.5 μg/mL, Escherichia coli ATCC 25922): 8.065 | FICI range (MIC table) (CBD with Ceftazidime, Escherichia coli ATCC 25922): 1.24-8.06 | FICI (CBD with Cefuroxime at 0.25 μg/mL, Escherichia coli ATCC 25922): 1.125 | FICI (CBD with Cefuroxime at 1 μg/mL, Escherichia coli ATCC 25922): 1.5 | FICI (CBD with Cefuroxime at 2 μg/mL, Escherichia coli ATCC 25922): 1.001 | FICI (CBD with Cefuroxime at 4 μg/mL, Escherichia coli ATCC 25922): 2 | FICI (CBD with Cefuroxime at 8 μg/mL, Escherichia coli ATCC 25922): 4 | FICI (CBD with Colistin at 0.015 μg/mL, Escherichia coli ATCC 25922): 1.03 | FICI (CBD with Colistin at 0.03 μg/mL, Escherichia coli ATCC 25922): 1.06 | FICI (CBD with Colistin at 0.06 μg/mL, Escherichia coli ATCC 25922): 0.1512 | FICI (CBD with Colistin at 0.25 μg/mL, Escherichia coli ATCC 25922): 0.5039 | FICI (CBD with Colistin at 0.5 μg/mL, Escherichia coli ATCC 25922): 1 | FICI range (MIC table) [1]: 0.15-1.06 | FICI range (Synergy table) [1]: 0.15-0.5 | FICI range (MIC table) [2]: 0.5-1.25 | FICI range (Synergy table) [2]: 0.5 | FICI (CBD with MCC_6442 at 0.25 μg/mL, Escherichia coli ATCC 25922): 1.0625 | FICI (CBD with MCC_6442 at 0.5 μg/mL, Escherichia coli ATCC 25922): 1.125 | FICI (CBD with MCC_6442 at 2 μg/mL, Escherichia coli ATCC 25922, listed as CBD): 0.5 | FICI range (CBD with Octapeptin C4, Synergy table (Table 85), listed as CBD): 0.5 and 0.31-0.5 | FICI range (CBD with Octapeptin C4, all tested concentrations (Table 83), listed as CBD): 0.5-1.25 and 0.31-1.13 | FICI (CBD with Octapeptin C4 at 0.5 μg/mL, CBD MIC taken as 256 μg/mL): 1.0625 | FICI (CBD with Octapeptin C4 at 1 μg/mL, CBD MIC taken as 256 μg/mL): 1.125 | FICI (CBD with Octapeptin C4 at 2 μg/mL, CBD MIC taken as 256 μg/mL): 0.3125 | FICI (CBD with Octapeptin C4 at 4 μg/mL, CBD MIC taken as 256 μg/mL): 0.5002 and 0.5005 | FICI (CBD with Octapeptin C4 at […], CBD MIC taken as 256 μg/mL): 1.016 | FICI range (CBD with Spero SPR206, 1st of 3 experiments): 0.5-16 | FICI range (CBD with Spero SPR206, 2nd of 3 experiments, listed as CBD): 0.13-1.06 and 0.07-1.03 | FICI range (CBD with Spero SPR206, 3rd of 3 experiments): 1.01-8 | FICI (CBD with Spero SPR206 at 0.007 μg/mL, 2nd of 3 experiments, CBD MIC taken as 256 μg/mL): 1.014 | FICI (CBD with Spero SPR206 at 0.015 μg/mL, 2nd of 3 experiments, CBD MIC taken as 256 μg/mL): 1.03 | FICI (CBD with Spero SPR206 at 0.062 μg/mL, 2nd of 3 experiments, CBD MIC taken as 256 μg/mL): 0.1279 | FICI (CBD with Spero SPR206 at 0.25 μg/mL, 2nd of 3 experiments, CBD MIC taken as 256 μg/mL): 0.5039 | FICI (CBD with Spero SPR206 at 0.25 μg/mL, 3rd of 3 experiments, CBD MIC taken as 256 μg/mL): 1.5 | FICI (CBD with Spero SPR206 at 0.5 μg/mL, 1st of 3 experiments, CBD MIC taken as 256 μg/mL): 2 | FICI (CBD with Spero SPR206 at 0.5 μg/mL, 3rd of 3 experiments, CBD MIC taken as 256 μg/mL): 1.008 | FICI (CBD with Spero SPR206 at 1 μg/mL, 1st of 3 experiments, CBD MIC taken as 256 μg/mL): 4 | FICI (CBD with Spero SPR206 at 1 μg/mL, 3rd of 3 experiments, CBD MIC taken as 256 μg/mL): 2.002 and 2.001 | FICI (CBD with Spero SPR206 at 2 μg/mL, 1st of 3 experiments, CBD MIC taken as 256 μg/mL): 8 | FICI (CBD with Spero SPR206 at 2 μg/mL, 3rd of 3 experiments, CBD MIC taken as 256 μg/mL): 4.001 | FICI (CBD with Spero SPR206 at 4 μg/mL, 1st of 3 experiments, CBD MIC taken as 256 μg/mL): 16 | FICI (CBD with Spero SPR206 at 4 μg/mL, 3rd of 3 experiments, CBD MIC taken as 256 μg/mL): 8 | FICI (CBD with Ticarcillin at 0.5 μg/mL, Escherichia coli ATCC 25922): 1.0625 | FICI (CBD with Ticarcillin at 1 μg/mL, Escherichia coli ATCC 25922): 1.125 | FICI (CBD with Ticarcillin at 4 μg/mL, Escherichia coli ATCC 25922): 0.5005 | FICI range (MIC table) [3]: 0.5-1.25 | FICI range (Synergy table) [3]: 0.5 | CBD MIC with Cefepime (Cefepime at 0.031 μg/mL): 1 ng/mL | CBD MIC with Cefepime (Cefepime at 0.062 μg/mL): 1 ng/mL | CBD MIC with Cefepime (Cefepime at 0.25 μg/mL): 1 ng/mL | CBD MIC with Cefepime (Cefepime at 0.5 μg/mL): 1 ng/mL | CBD MIC with Cefepime (Cefepime at […]): 1 ng/mL | CBD MIC with Cefotetan (Cefotetan at 0.015 μg/mL): >32000 ng/mL | CBD MIC with Cefotetan (Cefotetan at 0.015 μg/mL, Escherichia coli ATCC 25922): >256000 ng/mL | CBD MIC with Cefotetan (Cefotetan at 0.031 μg/mL): >32000 ng/mL | CBD MIC with Cefotetan (Cefotetan at 0.031 μg/mL, Escherichia coli ATCC 25922): >256000 ng/mL | CBD MIC with Cefotetan (Cefotetan at 0.062 μg/mL): >32000 ng/mL | CBD MIC with Cefotetan (Cefotetan at 0.062 μg/mL, Escherichia coli ATCC 25922): >256000 ng/mL | CBD MIC with Cefotetan (Cefotetan at 0.25 μg/mL): 1 ng/mL | CBD MIC with Cefotetan (Cefotetan at 0.25 μg/mL, Escherichia coli ATCC 25922): 1 ng/mL | CBD MIC with Cefotetan (Cefotetan at 0.5 μg/mL): 1 ng/mL | CBD MIC with Cefotetan (Cefotetan at 0.5 μg/mL, Escherichia coli ATCC 25922): 1 ng/mL | CBD MIC with Cefotetan (Cefotetan at […]): 1 ng/mL | CBD MIC with Cefotetan (Cefotetan at […], Escherichia coli ATCC 25922): 1 ng/mL | CBD MIC with Ceftazidime (Ceftazidime at 0.25 μg/mL, Escherichia coli ATCC 25922): 1 ng/mL | CBD MIC with Ceftazidime (Ceftazidime at 0.5 μg/mL, Escherichia coli ATCC 25922): 1 ng/mL | CBD MIC with Cefuroxime (Cefuroxime at 2 μg/mL, Escherichia coli ATCC 25922): 250 ng/mL

— patent US20230013669A1, “Antibacterial Treatment Using a Cannabinoid and an Active Agent” (priority 2019, published 2023)
